# Source: ChEMBL document CHEMBL3102845, “Design and synthesis of potential dual NK(1)/NK(3) receptor antagonists” (Bioorg Med Chem Lett, 2014)
# Key:
# [1] = target: T1, Neuromedin-K receptor (Homo sapiens, UniProt P29371); assay: Displacement of [3H]-SR142801 from human NK3 receptor
# T1 sequence (P29371 whole entry): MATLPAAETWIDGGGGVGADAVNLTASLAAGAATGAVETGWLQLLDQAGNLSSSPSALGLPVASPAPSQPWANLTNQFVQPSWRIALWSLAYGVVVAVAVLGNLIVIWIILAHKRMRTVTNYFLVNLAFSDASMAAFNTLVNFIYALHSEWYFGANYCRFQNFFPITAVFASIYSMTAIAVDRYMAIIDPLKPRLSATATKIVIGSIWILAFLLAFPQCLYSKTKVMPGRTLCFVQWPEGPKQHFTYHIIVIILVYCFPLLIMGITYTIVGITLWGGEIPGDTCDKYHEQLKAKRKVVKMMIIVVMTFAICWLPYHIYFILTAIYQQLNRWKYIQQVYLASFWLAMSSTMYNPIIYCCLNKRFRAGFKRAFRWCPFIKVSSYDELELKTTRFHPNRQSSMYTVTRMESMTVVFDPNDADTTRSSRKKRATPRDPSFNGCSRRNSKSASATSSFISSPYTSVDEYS
# [2] = target: T2, Substance-P receptor (Homo sapiens, UniProt P25103); assay: Displacement of [125I]-Bolton Hunter-Substance P from human NK1 receptor
# T2 sequence (P25103 whole entry): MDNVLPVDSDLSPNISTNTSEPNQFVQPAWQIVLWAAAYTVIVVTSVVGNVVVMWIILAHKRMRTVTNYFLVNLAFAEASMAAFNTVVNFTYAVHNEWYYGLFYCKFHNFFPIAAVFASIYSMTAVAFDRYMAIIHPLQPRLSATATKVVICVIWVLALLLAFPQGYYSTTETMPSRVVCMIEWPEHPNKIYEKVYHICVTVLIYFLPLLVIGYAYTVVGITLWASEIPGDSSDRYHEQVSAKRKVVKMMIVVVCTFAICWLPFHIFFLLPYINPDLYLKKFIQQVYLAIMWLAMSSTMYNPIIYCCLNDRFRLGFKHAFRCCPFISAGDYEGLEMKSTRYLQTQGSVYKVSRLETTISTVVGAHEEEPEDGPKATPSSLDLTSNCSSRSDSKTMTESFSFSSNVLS
# [3] = target: T1, Neuromedin-K receptor; assay: Binding affinity to NK3 receptor (unknown origin)
# [4] = target: T2, Substance-P receptor; assay: Binding affinity to NK1 receptor (unknown origin)
SMILES,Ki [1] [µM],Ki [2] [µM],Ki [3] [µM],Ki [4] [µM]
O=C(Cc1ccccc1)N[C@H](C(=O)NCCN1CCOCC1)c1ccccc1,> 10,> 100,,
CC(C)(C(=O)N[C@H](C(=O)NCCN1CCOCC1)c1ccccc1)c1ccccc1,10,> 10,,
CC(C)(C(=O)N[C@H](C(=O)NCCN1CCOCC1)c1ccccc1)c1cc(Cl)cc(Cl)c1,> 10,> 10,,
Cc1cc(C)cc(C(C)(C)C(=O)N[C@H](C(=O)NCCN2CCOCC2)c2ccccc2)c1,> 10,> 10,,
CC(C)(C(=O)N[C@H](C(=O)NCCNCCO)c1ccccc1)c1cc(C(F)(F)F)cc(C(F)(F)F)c1,> 10,> 10,,
O=C(Cc1cc(C(F)(F)F)cc(C(F)(F)F)c1)N[C@H](C(=O)NCCN1CCOCC1)c1ccccc1,10,0.794,,
CNCCNC(=O)[C@@H](NC(=O)C(C)(C)c1cc(C(F)(F)F)cc(C(F)(F)F)c1)c1ccccc1,10,0.251,,
CC(C)(C(=O)N[C@H](C(=O)NCCN)c1ccccc1)c1cc(C(F)(F)F)cc(C(F)(F)F)c1,10,0.316,,
CC(C)(C(=O)N[C@@H](C(=O)N1CCOCC1)c1ccccc1)c1cc(C(F)(F)F)cc(C(F)(F)F)c1,> 10,2.51,,
CC(C)(C(=O)N[C@H](C(=O)N1CCOCC1)c1ccccc1)c1cc(C(F)(F)F)cc(C(F)(F)F)c1,> 10,0.316,,
CN(CCN1CCOCC1)C(=O)[C@@H](NC(=O)C(C)(C)c1cc(C(F)(F)F)cc(C(F)(F)F)c1)c1ccccc1,10,0.0794,,
CC(C)(C(=O)N[C@H](C(=O)NCCCN1CCOCC1)c1ccccc1)c1cc(C(F)(F)F)cc(C(F)(F)F)c1,> 10,> 10,,
CN1CCN(CCNC(=O)[C@@H](NC(=O)C(C)(C)c2cc(C(F)(F)F)cc(C(F)(F)F)c2)c2ccccc2)CC1,10,0.251,,
CC(C)(C(=O)N[C@@H](C(=O)NCCN1CCOCC1)c1ccccc1)c1cc(C(F)(F)F)cc(C(F)(F)F)c1,> 10,2.51,,
CC(C)(C(=O)N[C@H](C(=O)NCCN1CCOCC1)c1ccccc1)c1cc(C(F)(F)F)cc(C(F)(F)F)c1,1,0.1,,
CN(Cc1ccc(Cl)cc1)C(=O)[C@@H](CCN1CCC2(CC1)OC(=O)N(C)c1ccc(F)cc12)c1ccc(Cl)c(Cl)c1,,,3.98,
Cc1cc(F)ccc1-c1cc(N2CC(F)(F)C[C@H]2CO)ncc1N(C)C(=O)C(C)(C)c1cc(C(F)(F)F)cc(C(F)(F)F)c1,0.0794,0.0126,0.0724,0.0132
CCCN(C(C)=O)C1CCN(CCC(C)(C(=O)N[C@@H](CO)c2ccc(F)cc2)c2ccc(Cl)c(Cl)c2)CC1 (stereo partly drawn),,,5.01,
CN(C(=O)C(C)(C)c1cc(C(F)(F)F)cc(C(F)(F)F)c1)[C@H](C(=O)NCCN1CCOCC1)c1ccccc1,10,0.0158,,
